According to patent US20240083898A1, “TRICYCLIC TRIAZOLO COMPOUNDS AS DGK INHIBITORS” (Incyte Corporation, priority 2022, published 2024):

How the values were obtained:
DGKα = target: T1, DGKα (Homo sapiens, UniProt P23743); assay: In vitro DGKα inhibition assay (ADP-Glo); assay type: biochemical; conditions: His-tagged human recombinant enzyme, 0.1 nM DGKα, 50 μM ATP, 20 μM DLG, 90 minute incubation
T1 construct: His; purchased Signal Chem D21-10BH
Protocol: (§1) The DGKα and DGKζ biochemical reactions were performed using His-tagged human recombinant enzymes (Signal Chem, DGKα, #D21-10BH; DGKζ, #D30-10H)) and DLG (Dilauroyl-sn-glycerol) lipid substrate (Signal Chem, #D430-59). ADP-Glo assay was performed using ADP-Glo™ kinase Assay kit (Promega, #V9104). The reactions were carried out in assay buffer containing 40 mM Tris, pH 7.5, 0.1% CHAPS, 0.1% Prionex, 40 mM NaCl, 5 mM MgCl2, 1 mM CaCl2, and 1 mM DTT. DGKα reactions contained 0.1 nM DGKα, 50 μM ATP, and 20 μM DLG. And DGKζ reactions contained 0.4 nM DGKζ, 30 μM ATP, and 20 μM DLG.
(§2) For compound inhibition studies, 40 nL test compound in DMSO was added to wells of white polystyrene plates in 384-well (Greiner, #784075) or 1536-well format (Greiner, #782075). Compounds were added with top concentration of 2 mM with 11 point, 3-fold dilution series. Enzyme solution (contains 2× DGK enzyme concentration in 1× assay buffer) was added to the plate in 2 μL/well volume, followed by 2 μL/well of substrate solution (contains 2× concentration of ATP and DLG substrate in 1× assay buffer). Plates were then centrifuged for 1 min at 1200 RPM and sealed or lidded. For 4 μL reaction volume, test compounds were therefore diluted 100× to final top concentration of 20 μM. After 90 minute incubation, reactions were quenched by addition of 2 μL/well Promega ADP-Glo Reagent, followed by centrifugation and lidding. After 60 min incubation, 2 μL/well Promega Kinase Detection Reagent was added, plates centrifuged, and incubated for 30 min. Plates were then read using Luminescence method on BMG PHERAstar FSX plate reader. Percent inhibition was calculated and IC50s were determined using 4-parameter fit in Genedata Screener. Labcyte Echo acoustic dispenser was used for compound addition, and Formulatrix Tempest liquid handler was used for all reagent dispenses.

DGKζ = target: T2, DGKζ (Homo sapiens, UniProt Q13574); assay: In vitro DGKζ inhibition assay (ADP-Glo); assay type: biochemical; conditions: His-tagged human recombinant enzyme, 0.4 nM DGKζ, 30 μM ATP, 20 μM DLG, 90 minute incubation
T2 construct: His; purchased Signal Chem D30-10H
T2 sequence (Q13574 whole entry): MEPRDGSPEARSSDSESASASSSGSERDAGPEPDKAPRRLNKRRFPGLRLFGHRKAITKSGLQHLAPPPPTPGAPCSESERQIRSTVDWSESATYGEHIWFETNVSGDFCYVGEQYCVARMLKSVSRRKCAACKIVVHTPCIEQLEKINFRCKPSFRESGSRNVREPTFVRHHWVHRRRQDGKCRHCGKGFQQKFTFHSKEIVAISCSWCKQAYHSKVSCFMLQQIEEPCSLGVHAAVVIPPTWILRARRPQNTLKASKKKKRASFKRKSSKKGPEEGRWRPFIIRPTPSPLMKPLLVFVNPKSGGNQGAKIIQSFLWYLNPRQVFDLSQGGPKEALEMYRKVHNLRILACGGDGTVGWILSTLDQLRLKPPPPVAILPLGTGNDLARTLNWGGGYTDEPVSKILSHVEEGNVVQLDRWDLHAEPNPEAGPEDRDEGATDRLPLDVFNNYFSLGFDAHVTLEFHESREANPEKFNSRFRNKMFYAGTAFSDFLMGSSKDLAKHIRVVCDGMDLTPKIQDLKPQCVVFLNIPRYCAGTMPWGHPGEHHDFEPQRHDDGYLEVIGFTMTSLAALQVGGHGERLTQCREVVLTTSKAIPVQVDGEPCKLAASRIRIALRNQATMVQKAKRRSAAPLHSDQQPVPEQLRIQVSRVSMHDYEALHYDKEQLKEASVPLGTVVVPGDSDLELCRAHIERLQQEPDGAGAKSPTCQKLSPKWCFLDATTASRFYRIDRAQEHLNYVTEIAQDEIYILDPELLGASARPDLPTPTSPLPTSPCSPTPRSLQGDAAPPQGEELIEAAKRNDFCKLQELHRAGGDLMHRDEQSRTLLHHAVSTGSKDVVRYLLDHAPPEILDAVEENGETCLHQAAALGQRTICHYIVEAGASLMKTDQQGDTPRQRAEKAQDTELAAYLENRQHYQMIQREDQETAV
Protocol: as §1, §2

T1 sequence (P23743 whole entry): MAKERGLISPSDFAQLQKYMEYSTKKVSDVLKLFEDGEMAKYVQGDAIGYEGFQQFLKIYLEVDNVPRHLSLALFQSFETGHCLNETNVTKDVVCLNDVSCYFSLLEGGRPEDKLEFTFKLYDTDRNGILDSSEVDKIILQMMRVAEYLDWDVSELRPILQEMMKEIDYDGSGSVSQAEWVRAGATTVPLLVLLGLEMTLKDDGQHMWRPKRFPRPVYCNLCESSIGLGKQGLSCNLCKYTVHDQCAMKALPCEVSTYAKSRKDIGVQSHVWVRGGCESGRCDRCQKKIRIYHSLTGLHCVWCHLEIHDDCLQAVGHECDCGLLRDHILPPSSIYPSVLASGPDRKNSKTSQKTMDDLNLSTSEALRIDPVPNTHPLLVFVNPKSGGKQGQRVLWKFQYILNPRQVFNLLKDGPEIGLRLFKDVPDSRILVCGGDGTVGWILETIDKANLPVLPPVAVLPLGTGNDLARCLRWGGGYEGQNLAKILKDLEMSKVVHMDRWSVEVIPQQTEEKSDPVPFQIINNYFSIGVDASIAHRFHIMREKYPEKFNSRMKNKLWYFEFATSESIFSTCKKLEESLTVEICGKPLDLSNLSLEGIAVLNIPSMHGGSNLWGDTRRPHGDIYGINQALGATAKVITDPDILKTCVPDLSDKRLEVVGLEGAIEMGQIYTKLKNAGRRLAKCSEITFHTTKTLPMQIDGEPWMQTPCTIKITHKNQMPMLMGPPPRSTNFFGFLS

| IC50 (DGKα) | IC50 (DGKζ) | Structure (SMILES) |
| --- | --- | --- |
| ≤ 20 nM | ≤ 20 nM | CC[C@@H]1CN(c2nc3nncn3c3nccnc23)[C@@H](C)CN1C(c1ccc(F)cc1)c1ccc(F)cc1 [Example 8, 5-((2S,5R)-4-(Bis(4-fluorophenyl)methyl)-5-ethyl-2-methylpiperazin-1-yl)-[1,2,4]triazolo[4,3-a]pteridine] |
| ≤ 20 nM | ≤ 20 nM | CC[C@H]1CN(C(c2ccc(F)cc2)c2ccc(F)cc2)[C@H](CC)CN1c1nc2nncn2c2ccc(C)nc12 [Example 1, 5-((2S,5R)-4-(Bis(4-fluorophenyl)methyl)-2,5-diethylpiperazin-1-yl)-7-methylpyrido[2,3-e][1,2,4]triazolo[4,3-a]pyrimidine] |
| ≤ 20 nM | ≤ 20 nM | CC[C@H]1CN(C(c2ccc(F)cc2)c2ccc(F)cc2)[C@H](CC)CN1c1nc2nncn2c2nccnc12 [Example 4, 5-((2S,5R)-4-(Bis(4-fluorophenyl)methyl)-2,5-diethylpiperazin-1-yl)-[1,2,4]triazolo[4,3-a]pteridine] |
| ≤ 20 nM | ≤ 20 nM | CC[C@H]1CN(C(c2ccc(F)cc2)c2ccc(F)cc2)[C@H](CC)CN1c1nc2nncn2c2cccnc12 [Example 2, 5-((2S,5R)-4-(Bis(4-fluorophenyl)methyl)-2,5-diethylpiperazin-1-yl)pyrido[2,3-e][1,2,4]triazolo[4,3-a]pyrimidine] |
| ≤ 20 nM | ≤ 20 nM | CC[C@H]1CN(C(c2ccc(F)cc2)c2ccc(F)cc2)[C@H](CC)CN1c1nc2nncn2c2ccc(C#N)nc12 [Example 5, 5-((2S,5R)-4-(Bis(4-fluorophenyl)methyl)-2,5-diethylpiperazin-1-yl)pyrido[2,3-e][1,2,4]triazolo[4,3-a]pyrimidine-7-carbonitrile] |

Further lines, the molecule ahead of its results:

| Structure (SMILES) | IC50 (DGKα) | IC50 (DGKζ) |
| --- | --- | --- |
| CC[C@@H]1CN(c2nc3nncn3c3cccnc23)[C@@H](C)CN1C(c1ccc(F)cc1)C(C)(C)O (single isomer, unassigned) [Example 15] | 20 to 200 nM | 20 to 200 nM |
| CC[C@@H]1CN(c2nc3nncn3c3cccnc23)[C@@H](C)CN1C(c1ccc(F)cc1)C(C)(C)O (single isomer, unassigned) [Example 14] | ≤ 20 nM | 200 to 2000 nM |
| CC[C@@H]1CN(c2nc3nncn3c3cccnc23)[C@@H](C)CN1C(c1ccc(F)cc1)c1nc(C2CC2)no1 (mixture of isomers) [Example 9, 3-Cyclopropyl-5-(((2R,5S)-2-ethyl-5-methyl-4-(pyrido[2,3-e][1,2,4]triazolo[4,3-a]pyrimidin-5-yl)piperazin-1-yl)(4-fluorophenyl)methyl)-1,2,4-oxadiazole] | ≤ 20 nM | 20 to 200 nM |
| CC[C@@H]1CN(c2nc3nncn3c3cccnc23)[C@@H](C)CN1C(C(=O)OC)c1ccc(F)cc1 (single isomer, unassigned) [Example 13] | ≤ 20 nM | 20 to 200 nM |
| CC[C@H]1CN(C(c2ccc(F)cc2)c2ccc(F)cc2)[C@H](CC)CN1c1cc2nncn2c2cccnc12 [Example 7, 5-((2S,5R)-4-(Bis(4-fluorophenyl)methyl)-2,5-diethylpiperazin-1-yl)-[1,2,4]triazolo[4,3-a][1,5]naphthyridine] | ≤ 20 nM | 20 to 200 nM |
| CC[C@H]1CN(C(c2ccc(F)cc2)c2ccc(F)cc2)[C@H](CC)CN1c1nc2nnc(C)n2c2cccnc12 [Example 3, 5-((2S,5R)-4-(Bis(4-fluorophenyl)methyl)-2,5-diethylpiperazin-1-yl)-1-methylpyrido[2,3-e][1,2,4]triazolo[4,3-a]pyrimidine] | ≤ 20 nM | ≤ 20 nM |
| CC[C@H]1CN(C(c2ccc(F)cc2)c2ccc(F)cc2)[C@H](CC)CN1c1nc2nncn2c2cc(-c3cnn(C)c3)cnc12 [Example 6, 5-((2S,5R)-4-(Bis(4-fluorophenyl)methyl)-2,5-diethylpiperazin-1-yl)-8-(1-methyl-1H-pyrazol-4-yl)pyrido[2,3-e][1,2,4]triazolo[4,3-a]pyrimidine] | ≤ 20 nM | > 2000 nM |
| CC[C@@H]1CN(c2nc3nncn3c3cccnc23)[C@@H](C)CN1C(C(=O)OC)c1ccc(F)cc1 (single isomer, unassigned) [Example 12] | ≤ 20 nM | 20 to 200 nM |
| CC[C@@H]1CN(c2nc3nncn3c3cccnc23)[C@@H](C)CN1Cc1ccc2cc(F)ccc2n1 [Example 10, 5-((2S,5R)-5-Ethyl-4-((6-fluoroquinolin-2-yl)methyl)-2-methylpiperazin-1-yl)pyrido[2,3-e][1,2,4]triazolo[4,3-a]pyrimidine] | ≤ 20 nM | 20 to 200 nM |
| CC[C@@H]1CN(c2nc3nncn3c3cccnc23)[C@@H](C)CN1Cc1cccc2ccccc12 [Example 11, 5-((2S,5R)-5-Ethyl-2-methyl-4-(naphthalen-1-ylmethyl)piperazin-1-yl)pyrido[2,3-e][1,2,4]triazolo[4,3-a]pyrimidine] | ≤ 20 nM | ≤ 20 nM |
